{"source": "patent US10786930B2", "about": "“Articles having antimicrobial properties and methods of manufacturing the same” (Medline Industries, Inc., priority 2010, dated 2020)", "test_system": "aerobic bacteria", "test": "total bacterial count test on finished gloves (TSA plates)", "settings": "FIG. 5, total bacteria count on prepared articles as a function of CHG concentration in the coagulant", "description": "In order to determine the effectiveness of the antimicrobial coagulant on a finished article, a total bacterial count test was completed on the article prepared using the above formulas. The following three concentrations were prepared: 0.8% Saline Solution (sodium Chloride), 4% TSA & 6.5% SDA solution, which were subsequently sterilized at 121° C. for 15 minutes. Three gloves made with each formula were cut into two pieces each and were soaked into 60 ml Saline solution and shaken for 10 minutes. After that, 1 ml of the solution and 1 ml of Agar solution (TSA and SDA) were pipetted out into a Petri dish. The Petri dish plates were incubated for 2 days at 30-35° C. for TSA & 4 days at 20-25° C. for SDA. The colonies on each plate was counted and total fungus/aerobic bacteria count per glove was calculated as: Total Aerobic Bacteria Count Per Glove=(Count of TSA plate*60)/3 Total Fungus Count Per Glove=(Count of SDA plate*60)/3 The results of total bacteria count on TSA for above four samples and control sample are listed below.", "data": [{"smiles": "N=C(NCCCCCCNC(=N)NC(=N)Nc1ccc(Cl)cc1)NC(=N)Nc1ccc(Cl)cc1.O=C(O)[C@H](O)[C@@H](O)[C@H](O)[C@H](O)CO.O=C(O)[C@H](O)[C@@H](O)[C@H](O)[C@H](O)CO", "note": "[CHG, chlorhexidine gluconate]", "values": [{"measurement": "concentration of CHG up to which total bacteria count decreased (above it the count increased)", "result": "approximately 0.02%"}]}]}
